# Measurements as given in paper PMC5666424, “Marine-Derived 2-Aminoimidazolone Alkaloids. Leucettamine B-Related Polyandrocarpamines Inhibit Mammalian and Protozoan DYRK & CLK Kinases” (Marine Drugs, 2017).
# Columns and labels:
# Experiment in all cases: KinomeScan
# Assay type in all cases: binding
# Settings in all cases: 1 μM
# ERK3 = target: T1, ERK3 (Homo sapiens, UniProt Q16659)
# T1 construct: purchased DiscoverX (KINOMEscan)
# KIT = target: T2, KIT (Homo sapiens, UniProt P10721)
# T2 construct: purchased DiscoverX (KINOMEscan)
# MYLK4 = target: T3, MYLK4 (Homo sapiens, UniProt Q86YV6)
# T3 construct: purchased DiscoverX (KINOMEscan)
# EGFR(L858R) = target: T4, EGFR(L858R) (Homo sapiens, UniProt P00533, L858R)
# T4 construct: purchased DiscoverX (KINOMEscan)
# TNNI3K = target: T5, TNNI3K (Homo sapiens, UniProt Q59H18)
# T5 construct: purchased DiscoverX (KINOMEscan)
# MAPKAPK2 = target: T6, MAPKAPK2 (Homo sapiens, UniProt P49137)
# T6 construct: purchased DiscoverX (KINOMEscan)
# CDK5 = target: T7, CDK5 (Homo sapiens, UniProt Q00535)
# T7 construct: purchased DiscoverX (KINOMEscan)
# EIF2AK1 = target: T8, EIF2AK1 (Homo sapiens, UniProt Q9BQI3)
# T8 construct: purchased DiscoverX (KINOMEscan)
# CAMK1G = target: T9, CAMK1G (Homo sapiens, UniProt Q96NX5)
# T9 construct: purchased DiscoverX (KINOMEscan)
# EPHA5 = target: T10, EPHA5 (Homo sapiens, UniProt P54756)
# T10 construct: purchased DiscoverX (KINOMEscan)
# YANK2 = target: T11, YANK2 (Homo sapiens, UniProt Q9NY57)
# T11 construct: purchased DiscoverX (KINOMEscan)
# LYN = target: T12, LYN (Homo sapiens, UniProt P07948)
# T12 construct: purchased DiscoverX (KINOMEscan)
# FLT3(K663Q) = target: T13, FLT3(K663Q) (Homo sapiens, UniProt P36888, K663Q)
# T13 construct: purchased DiscoverX (KINOMEscan)
# CLK3 = target: T14, CLK3 (Homo sapiens, UniProt P49761)
# T14 construct: purchased DiscoverX (KINOMEscan)
# NEK7 = target: T15, NEK7 (Homo sapiens, UniProt Q8TDX7)
# T15 construct: purchased DiscoverX (KINOMEscan)
# GCN2(Kin.Dom.2,S808G) = target: T16, GCN2(Kin.Dom.2,S808G) (Homo sapiens, UniProt Q9P2K8, S808G)
# T16 construct: GCN2(Kin.Dom.2,S808G); purchased DiscoverX (KINOMEscan)
# EPHB2 = target: T17, EPHB2 (Homo sapiens, UniProt P29323)
# T17 construct: purchased DiscoverX (KINOMEscan)
# JNK3 = target: T18, JNK3 (Homo sapiens, UniProt P53779)
# T18 construct: purchased DiscoverX (KINOMEscan)
# GRK4 = target: T19, GRK4 (Homo sapiens, UniProt P32298)
# T19 construct: purchased DiscoverX (KINOMEscan)
# CLK4 = target: T20, CLK4 (Homo sapiens, UniProt Q9HAZ1)
# T20 construct: purchased DiscoverX (KINOMEscan)
# LATS1 = target: T21, LATS1 (Homo sapiens, UniProt O95835)
# T21 construct: purchased DiscoverX (KINOMEscan)
# SRPK3 = target: T22, SRPK3 (Homo sapiens, UniProt Q9UPE1)
# T22 construct: purchased DiscoverX (KINOMEscan)
# IKK-beta = target: T23, IKK-beta (Homo sapiens, UniProt O14920)
# T23 construct: purchased DiscoverX (KINOMEscan)
# GRK1 = target: T24, GRK1 (Homo sapiens, UniProt Q15835)
# T24 construct: purchased DiscoverX (KINOMEscan)
# VRK2 = target: T25, VRK2 (Homo sapiens, UniProt Q86Y07)
# T25 construct: purchased DiscoverX (KINOMEscan)
# IRAK1 = target: T26, IRAK1 (Homo sapiens, UniProt P51617)
# T26 construct: purchased DiscoverX (KINOMEscan)
# NEK5 = target: T27, NEK5 (Homo sapiens, UniProt Q6P3R8)
# T27 construct: purchased DiscoverX (KINOMEscan)
# STK35 = target: T28, STK35 (Homo sapiens, UniProt Q8TDR2)
# T28 construct: purchased DiscoverX (KINOMEscan)
# BLK = target: T29, BLK (Homo sapiens, UniProt P51451)
# T29 construct: purchased DiscoverX (KINOMEscan)
# MEK3 = target: T30, MEK3 (Homo sapiens, UniProt P46734)
# T30 construct: purchased DiscoverX (KINOMEscan)
# EPHA7 = target: T31, EPHA7 (Homo sapiens, UniProt Q15375)
# T31 construct: purchased DiscoverX (KINOMEscan)
# AXL = target: T32, AXL (Homo sapiens, UniProt P30530)
# T32 construct: purchased DiscoverX (KINOMEscan)
# MEK5 = target: T33, MEK5 (Homo sapiens, UniProt Q13163)
# T33 construct: purchased DiscoverX (KINOMEscan)
# TIE1 = target: T34, TIE1 (Homo sapiens, UniProt P35590)
# T34 construct: purchased DiscoverX (KINOMEscan)
# IRAK3 = target: T35, IRAK3 (Homo sapiens, UniProt Q9Y616)
# T35 construct: purchased DiscoverX (KINOMEscan)
# SNRK = target: T36, SNRK (Homo sapiens, UniProt Q9NRH2)
# T36 construct: purchased DiscoverX (KINOMEscan)
# CSF1R = target: T37, CSF1R (Homo sapiens, UniProt P07333)
# T37 construct: purchased DiscoverX (KINOMEscan)
# T37 sequence (P07333 20-972): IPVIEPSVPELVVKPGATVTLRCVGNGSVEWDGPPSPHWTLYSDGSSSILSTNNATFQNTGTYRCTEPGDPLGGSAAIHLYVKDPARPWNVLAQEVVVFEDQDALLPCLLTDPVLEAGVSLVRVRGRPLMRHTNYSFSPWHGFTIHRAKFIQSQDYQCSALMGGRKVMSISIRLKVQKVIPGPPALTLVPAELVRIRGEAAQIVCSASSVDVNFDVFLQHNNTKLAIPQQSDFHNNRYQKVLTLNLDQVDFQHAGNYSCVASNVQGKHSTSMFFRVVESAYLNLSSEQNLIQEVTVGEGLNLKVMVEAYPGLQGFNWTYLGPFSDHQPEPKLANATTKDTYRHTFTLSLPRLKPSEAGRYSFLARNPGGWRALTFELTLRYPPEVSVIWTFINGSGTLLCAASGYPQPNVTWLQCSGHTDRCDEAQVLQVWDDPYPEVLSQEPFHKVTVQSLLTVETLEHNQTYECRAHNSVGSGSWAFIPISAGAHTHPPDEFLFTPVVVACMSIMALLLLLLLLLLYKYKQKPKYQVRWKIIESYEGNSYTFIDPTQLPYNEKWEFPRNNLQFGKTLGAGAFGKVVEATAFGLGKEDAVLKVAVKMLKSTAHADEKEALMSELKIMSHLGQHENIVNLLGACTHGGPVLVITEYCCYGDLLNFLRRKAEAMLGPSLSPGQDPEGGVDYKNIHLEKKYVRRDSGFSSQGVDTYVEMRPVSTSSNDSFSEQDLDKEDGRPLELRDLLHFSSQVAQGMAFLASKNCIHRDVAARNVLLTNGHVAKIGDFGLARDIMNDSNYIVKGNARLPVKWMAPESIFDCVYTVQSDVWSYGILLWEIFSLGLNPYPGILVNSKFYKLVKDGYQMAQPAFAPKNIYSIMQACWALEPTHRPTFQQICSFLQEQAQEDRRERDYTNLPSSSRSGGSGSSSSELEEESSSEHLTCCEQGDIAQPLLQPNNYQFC
# T8 sequence (Q9BQI3 whole entry): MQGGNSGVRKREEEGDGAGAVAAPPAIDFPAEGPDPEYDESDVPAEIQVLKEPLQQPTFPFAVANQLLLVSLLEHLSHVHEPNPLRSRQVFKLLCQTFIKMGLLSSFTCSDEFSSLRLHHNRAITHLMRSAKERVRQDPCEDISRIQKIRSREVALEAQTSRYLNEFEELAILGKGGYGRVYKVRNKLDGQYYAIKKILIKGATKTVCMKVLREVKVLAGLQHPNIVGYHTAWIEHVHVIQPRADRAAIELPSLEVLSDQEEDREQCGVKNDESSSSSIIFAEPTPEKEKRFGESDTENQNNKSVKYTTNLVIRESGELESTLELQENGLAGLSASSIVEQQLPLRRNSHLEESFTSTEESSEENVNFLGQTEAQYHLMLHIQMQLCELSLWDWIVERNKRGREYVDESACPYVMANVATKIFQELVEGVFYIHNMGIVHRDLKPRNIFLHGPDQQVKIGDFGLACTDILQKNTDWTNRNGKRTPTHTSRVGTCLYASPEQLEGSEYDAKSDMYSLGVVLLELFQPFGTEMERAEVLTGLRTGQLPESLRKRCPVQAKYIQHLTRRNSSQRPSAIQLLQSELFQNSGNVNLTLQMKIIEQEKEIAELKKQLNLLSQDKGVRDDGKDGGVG
# T26 sequence (P51617 whole entry): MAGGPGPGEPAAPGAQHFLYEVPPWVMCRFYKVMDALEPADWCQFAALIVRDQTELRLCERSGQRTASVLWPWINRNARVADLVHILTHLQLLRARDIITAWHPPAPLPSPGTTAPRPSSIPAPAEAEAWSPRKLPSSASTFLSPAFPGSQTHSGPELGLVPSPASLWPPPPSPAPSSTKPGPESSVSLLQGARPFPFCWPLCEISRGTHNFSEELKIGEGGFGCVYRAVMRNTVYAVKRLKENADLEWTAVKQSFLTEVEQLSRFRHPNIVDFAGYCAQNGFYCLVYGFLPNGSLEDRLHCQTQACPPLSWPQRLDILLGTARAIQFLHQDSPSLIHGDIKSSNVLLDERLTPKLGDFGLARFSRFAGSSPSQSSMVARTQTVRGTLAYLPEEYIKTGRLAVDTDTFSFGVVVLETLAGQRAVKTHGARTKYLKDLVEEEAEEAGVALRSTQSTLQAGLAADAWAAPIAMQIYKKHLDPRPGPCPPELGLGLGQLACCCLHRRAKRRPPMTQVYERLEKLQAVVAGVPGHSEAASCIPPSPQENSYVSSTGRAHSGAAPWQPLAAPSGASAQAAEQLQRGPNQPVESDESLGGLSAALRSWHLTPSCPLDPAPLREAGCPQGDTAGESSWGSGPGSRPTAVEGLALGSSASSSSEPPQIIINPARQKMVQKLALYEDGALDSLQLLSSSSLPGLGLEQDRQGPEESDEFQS
# T11 sequence (Q9NY57 whole entry): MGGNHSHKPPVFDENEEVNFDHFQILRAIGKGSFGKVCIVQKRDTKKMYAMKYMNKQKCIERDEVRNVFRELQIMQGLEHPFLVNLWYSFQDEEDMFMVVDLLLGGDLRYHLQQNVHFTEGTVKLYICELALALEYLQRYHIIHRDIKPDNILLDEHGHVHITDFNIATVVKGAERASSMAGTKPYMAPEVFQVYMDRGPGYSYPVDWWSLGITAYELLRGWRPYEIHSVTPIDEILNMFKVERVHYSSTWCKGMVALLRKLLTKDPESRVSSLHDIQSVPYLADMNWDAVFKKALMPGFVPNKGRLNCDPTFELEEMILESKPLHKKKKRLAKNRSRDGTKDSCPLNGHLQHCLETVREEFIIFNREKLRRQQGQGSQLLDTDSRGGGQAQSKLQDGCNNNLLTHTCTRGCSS
# T5 sequence (Q59H18 whole entry): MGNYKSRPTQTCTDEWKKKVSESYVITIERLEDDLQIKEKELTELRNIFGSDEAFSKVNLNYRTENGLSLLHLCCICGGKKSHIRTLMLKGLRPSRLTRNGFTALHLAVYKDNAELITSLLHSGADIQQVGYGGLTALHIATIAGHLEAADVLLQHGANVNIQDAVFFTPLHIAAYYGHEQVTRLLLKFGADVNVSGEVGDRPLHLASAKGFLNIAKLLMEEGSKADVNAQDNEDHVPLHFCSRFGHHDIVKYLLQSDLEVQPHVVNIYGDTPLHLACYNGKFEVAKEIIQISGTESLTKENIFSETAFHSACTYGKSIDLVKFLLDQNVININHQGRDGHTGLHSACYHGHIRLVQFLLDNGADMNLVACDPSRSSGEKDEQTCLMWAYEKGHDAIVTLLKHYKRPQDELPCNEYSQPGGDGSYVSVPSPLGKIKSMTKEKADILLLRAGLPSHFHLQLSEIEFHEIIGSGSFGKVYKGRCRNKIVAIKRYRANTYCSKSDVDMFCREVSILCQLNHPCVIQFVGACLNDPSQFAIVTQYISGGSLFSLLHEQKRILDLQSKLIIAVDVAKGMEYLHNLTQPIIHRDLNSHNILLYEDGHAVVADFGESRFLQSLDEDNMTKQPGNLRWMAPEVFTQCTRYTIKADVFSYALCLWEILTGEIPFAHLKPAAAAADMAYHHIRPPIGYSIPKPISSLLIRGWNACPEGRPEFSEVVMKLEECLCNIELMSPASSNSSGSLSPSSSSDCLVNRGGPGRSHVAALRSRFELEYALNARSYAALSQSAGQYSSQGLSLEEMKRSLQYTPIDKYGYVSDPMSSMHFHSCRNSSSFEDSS
# T34 sequence (P35590 22-1138): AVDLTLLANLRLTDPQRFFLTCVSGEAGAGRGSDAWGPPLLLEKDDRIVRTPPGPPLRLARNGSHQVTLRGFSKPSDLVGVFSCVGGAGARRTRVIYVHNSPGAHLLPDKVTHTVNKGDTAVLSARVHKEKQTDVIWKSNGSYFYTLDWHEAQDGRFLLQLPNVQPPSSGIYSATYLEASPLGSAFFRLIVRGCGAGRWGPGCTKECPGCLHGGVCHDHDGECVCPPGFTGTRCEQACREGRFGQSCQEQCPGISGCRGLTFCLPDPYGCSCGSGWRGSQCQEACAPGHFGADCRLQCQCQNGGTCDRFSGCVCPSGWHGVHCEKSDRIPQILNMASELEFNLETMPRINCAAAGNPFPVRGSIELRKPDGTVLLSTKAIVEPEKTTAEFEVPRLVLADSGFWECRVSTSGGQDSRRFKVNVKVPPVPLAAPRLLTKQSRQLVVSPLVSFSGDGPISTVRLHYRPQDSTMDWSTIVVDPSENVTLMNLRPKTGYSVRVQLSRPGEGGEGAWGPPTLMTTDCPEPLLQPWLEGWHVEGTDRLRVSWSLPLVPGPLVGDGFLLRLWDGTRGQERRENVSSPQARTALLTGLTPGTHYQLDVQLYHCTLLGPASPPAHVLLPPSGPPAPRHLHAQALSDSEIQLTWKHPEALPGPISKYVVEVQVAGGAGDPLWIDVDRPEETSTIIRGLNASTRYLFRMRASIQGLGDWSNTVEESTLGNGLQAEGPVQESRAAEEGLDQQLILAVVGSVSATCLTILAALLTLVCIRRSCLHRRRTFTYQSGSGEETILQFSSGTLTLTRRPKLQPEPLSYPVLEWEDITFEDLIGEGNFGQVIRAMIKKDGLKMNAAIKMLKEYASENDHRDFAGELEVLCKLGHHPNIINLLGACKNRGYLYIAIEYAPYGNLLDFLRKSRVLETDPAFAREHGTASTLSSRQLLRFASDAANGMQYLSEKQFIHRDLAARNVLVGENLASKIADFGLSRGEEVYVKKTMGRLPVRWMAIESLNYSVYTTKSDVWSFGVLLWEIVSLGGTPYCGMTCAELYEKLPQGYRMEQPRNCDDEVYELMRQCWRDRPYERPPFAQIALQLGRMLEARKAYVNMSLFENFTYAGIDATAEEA
# T30 sequence (P46734 whole entry): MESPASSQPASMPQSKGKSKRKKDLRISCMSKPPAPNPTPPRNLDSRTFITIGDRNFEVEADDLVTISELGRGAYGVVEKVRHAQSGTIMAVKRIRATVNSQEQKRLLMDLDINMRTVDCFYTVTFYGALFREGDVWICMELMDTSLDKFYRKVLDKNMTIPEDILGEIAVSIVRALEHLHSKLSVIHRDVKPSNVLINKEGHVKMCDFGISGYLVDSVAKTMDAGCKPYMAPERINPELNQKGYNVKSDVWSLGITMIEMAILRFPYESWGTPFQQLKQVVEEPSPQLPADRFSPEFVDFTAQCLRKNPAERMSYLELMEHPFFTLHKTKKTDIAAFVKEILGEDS
smiles,measurement,setting,value
COc1cc(/C=C2\N=C(N)NC2=O)ccc1O [Polyandrocarpamine A],Score,ERK3,82
same,Score,KIT,87
same,Score,MYLK4,96
same,Score,EGFR(L858R),93
same,Score,TNNI3K,98
same,Score,MAPKAPK2,100
same,Score,CDK5,100
same,Score,EIF2AK1,100
same,Score,CAMK1G,100
same,Score,EPHA5,100
same,Score,YANK2,94
same,Score,LYN,89
same,Score,FLT3(K663Q),100
same,Score,CLK3,69
same,Score,NEK7,100
same,Score,"GCN2(Kin.Dom.2,S808G)",90
same,Score,EPHB2,79
same,Score,JNK3,93
same,Score,GRK4,100
same,Score,CLK4,30
same,Score,LATS1,100
same,Score,SRPK3,100
same,Score,IKK-beta,100
same,Score,GRK1,100
same,Score,VRK2,100
same,Score,IRAK1,28
same,Score,NEK5,95
same,Score,STK35,95
same,Score,BLK,100
same,Score,MEK3,98
same,Score,EPHA7,100
same,Score,AXL,100
same,Score,MEK5,78
same,Score,TIE1,81
same,Score,IRAK3,98
same,Score,SNRK,100
same,Score,CSF1R,87
